Results taken from patent publication US10815230B2, “Casein kinase 1 delta inhibitor” (ELECTROPHORETICS LIMITED, priority 2015, dated 2020).

Tests used:
Test in all cases: KINOMEscan binding assay
Settings in all cases: read-out: % Ctrl @ 10000 nM
CSNK1G2 = CSNK1G2 (Homo sapiens, UniProt P78368)
NLK = NLK (Homo sapiens, UniProt Q9UBE8)
ARK5 = ARK5 (Homo sapiens, UniProt O60285)
EPHB6 = EPHB6 (Homo sapiens, UniProt O15197)
IRAK1 = IRAK1 (Homo sapiens, UniProt P51617)
[1] = molecular target: ABL1 (T315I) non-phosphorylated (Homo sapiens, UniProt P00519, T315I)
TESK1 = TESK1 (Homo sapiens, UniProt Q15569)
BMX = BMX (Homo sapiens, UniProt P51813)
LCK = LCK (Homo sapiens, UniProt P06239)
LCK, sequence (P06239 whole entry): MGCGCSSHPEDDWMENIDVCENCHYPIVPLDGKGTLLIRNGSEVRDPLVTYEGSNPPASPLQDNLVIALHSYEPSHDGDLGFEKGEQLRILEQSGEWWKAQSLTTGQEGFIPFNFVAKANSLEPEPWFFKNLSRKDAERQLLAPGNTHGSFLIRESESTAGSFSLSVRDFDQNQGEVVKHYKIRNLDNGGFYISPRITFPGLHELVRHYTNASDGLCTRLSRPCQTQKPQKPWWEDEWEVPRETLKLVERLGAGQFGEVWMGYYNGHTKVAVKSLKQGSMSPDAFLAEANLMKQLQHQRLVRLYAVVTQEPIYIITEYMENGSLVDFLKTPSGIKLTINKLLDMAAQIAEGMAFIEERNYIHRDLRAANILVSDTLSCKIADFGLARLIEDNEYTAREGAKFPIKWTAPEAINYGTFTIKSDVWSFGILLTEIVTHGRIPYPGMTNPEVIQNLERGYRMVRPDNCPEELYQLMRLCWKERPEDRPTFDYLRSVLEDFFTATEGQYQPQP

AURKC = AURKC (Homo sapiens, UniProt Q9UQB9)
[2] = molecular target: RSK1 Kin.Dom.2-C-terminal (Homo sapiens, UniProt Q15418)
RSK1 Kin.Dom.2-C-terminal, sequence (Q15418 418-675 limits assumed): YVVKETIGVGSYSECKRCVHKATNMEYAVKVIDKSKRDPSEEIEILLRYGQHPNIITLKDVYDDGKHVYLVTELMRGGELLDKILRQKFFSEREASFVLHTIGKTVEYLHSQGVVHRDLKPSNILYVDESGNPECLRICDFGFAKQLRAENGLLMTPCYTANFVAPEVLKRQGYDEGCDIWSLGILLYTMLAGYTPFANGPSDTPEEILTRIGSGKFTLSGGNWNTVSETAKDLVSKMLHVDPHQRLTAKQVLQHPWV

TRKC = TRKC (Homo sapiens, UniProt Q16288)
ZAK = molecular target: T1, ZAK (Homo sapiens, UniProt Q9NYL2)
T1 construct: purchased DiscoveRx (KINOMEscan, LeadHunter Discovery services)
T1 sequence (Q9NYL2 whole entry): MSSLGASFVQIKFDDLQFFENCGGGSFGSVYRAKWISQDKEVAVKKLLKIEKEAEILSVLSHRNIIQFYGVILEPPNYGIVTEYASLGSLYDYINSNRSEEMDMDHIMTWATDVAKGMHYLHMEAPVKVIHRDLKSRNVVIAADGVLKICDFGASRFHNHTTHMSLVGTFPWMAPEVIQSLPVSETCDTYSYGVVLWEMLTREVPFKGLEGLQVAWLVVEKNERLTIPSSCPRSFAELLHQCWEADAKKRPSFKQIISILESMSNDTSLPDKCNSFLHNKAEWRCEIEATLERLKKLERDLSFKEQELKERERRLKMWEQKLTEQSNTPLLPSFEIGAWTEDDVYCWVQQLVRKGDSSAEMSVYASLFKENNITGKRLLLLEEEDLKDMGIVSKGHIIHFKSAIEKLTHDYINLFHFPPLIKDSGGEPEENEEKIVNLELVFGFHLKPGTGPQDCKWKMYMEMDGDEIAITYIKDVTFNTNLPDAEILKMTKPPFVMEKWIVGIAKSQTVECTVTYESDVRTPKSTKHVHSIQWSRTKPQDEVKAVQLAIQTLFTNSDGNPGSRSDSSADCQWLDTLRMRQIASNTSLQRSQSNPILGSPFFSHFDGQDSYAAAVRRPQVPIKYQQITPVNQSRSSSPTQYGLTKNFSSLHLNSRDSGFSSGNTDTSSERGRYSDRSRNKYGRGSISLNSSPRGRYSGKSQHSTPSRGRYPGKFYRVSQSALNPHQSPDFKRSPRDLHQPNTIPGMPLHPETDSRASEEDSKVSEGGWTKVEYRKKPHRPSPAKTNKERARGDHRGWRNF

MYLK = MYLK (Homo sapiens, UniProt Q15746)
PRKR = PRKR (Homo sapiens, UniProt P19525)
AMPK-alpha2 = AMPK-alpha2 (Homo sapiens, UniProt P54646)
WEE1 = WEE1 (Homo sapiens, UniProt P30291)
EGFR (G719C) = EGFR (G719C) (Homo sapiens, UniProt P00533, G719C)
ERK4 = ERK4 (Homo sapiens, UniProt P31152)
RIOK1 = RIOK1 (Homo sapiens, UniProt Q9BRS2)
DMPK2 = DMPK2 (Homo sapiens, UniProt Q6DT37)
DMPK2, sequence (Q6DT37 whole entry): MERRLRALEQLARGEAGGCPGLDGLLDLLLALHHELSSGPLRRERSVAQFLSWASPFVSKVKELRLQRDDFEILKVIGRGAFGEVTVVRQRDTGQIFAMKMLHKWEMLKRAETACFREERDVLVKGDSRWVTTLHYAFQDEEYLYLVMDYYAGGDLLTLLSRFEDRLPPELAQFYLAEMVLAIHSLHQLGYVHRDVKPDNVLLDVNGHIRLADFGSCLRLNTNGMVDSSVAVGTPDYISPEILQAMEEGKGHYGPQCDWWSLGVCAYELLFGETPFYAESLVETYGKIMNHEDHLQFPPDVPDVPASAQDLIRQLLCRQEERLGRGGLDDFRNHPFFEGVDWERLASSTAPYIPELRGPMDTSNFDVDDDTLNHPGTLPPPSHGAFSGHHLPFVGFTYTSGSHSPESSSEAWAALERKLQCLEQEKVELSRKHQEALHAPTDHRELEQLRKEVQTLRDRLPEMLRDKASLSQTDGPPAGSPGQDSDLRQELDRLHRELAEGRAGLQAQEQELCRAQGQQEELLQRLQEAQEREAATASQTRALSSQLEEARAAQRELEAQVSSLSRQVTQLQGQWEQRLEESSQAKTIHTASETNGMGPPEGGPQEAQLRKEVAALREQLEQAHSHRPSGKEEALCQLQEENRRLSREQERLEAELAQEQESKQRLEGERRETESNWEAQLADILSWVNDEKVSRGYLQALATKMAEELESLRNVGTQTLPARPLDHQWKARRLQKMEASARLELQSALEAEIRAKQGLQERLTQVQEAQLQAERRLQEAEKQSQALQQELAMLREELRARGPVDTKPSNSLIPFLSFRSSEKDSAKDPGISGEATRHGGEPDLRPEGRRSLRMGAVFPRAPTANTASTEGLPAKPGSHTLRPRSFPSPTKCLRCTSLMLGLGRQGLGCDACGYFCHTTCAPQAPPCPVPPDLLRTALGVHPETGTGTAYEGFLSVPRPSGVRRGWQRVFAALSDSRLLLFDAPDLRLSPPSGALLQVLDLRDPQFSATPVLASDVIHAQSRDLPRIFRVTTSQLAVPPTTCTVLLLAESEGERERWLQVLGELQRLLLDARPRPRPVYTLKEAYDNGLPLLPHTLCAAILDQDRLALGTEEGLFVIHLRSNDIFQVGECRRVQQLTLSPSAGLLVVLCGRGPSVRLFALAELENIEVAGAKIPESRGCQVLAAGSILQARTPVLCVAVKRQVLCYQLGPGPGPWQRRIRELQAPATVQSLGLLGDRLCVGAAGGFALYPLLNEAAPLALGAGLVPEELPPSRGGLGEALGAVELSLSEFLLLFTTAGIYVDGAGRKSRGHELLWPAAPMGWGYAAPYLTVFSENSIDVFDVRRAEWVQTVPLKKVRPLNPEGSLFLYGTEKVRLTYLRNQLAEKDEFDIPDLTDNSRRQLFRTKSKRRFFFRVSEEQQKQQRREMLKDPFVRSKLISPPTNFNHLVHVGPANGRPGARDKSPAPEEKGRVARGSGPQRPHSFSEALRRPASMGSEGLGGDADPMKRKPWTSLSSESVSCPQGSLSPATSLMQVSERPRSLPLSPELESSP

ROS1 = ROS1 (Homo sapiens, UniProt P08922)
YANK3 = molecular target: T2, YANK3 (Homo sapiens, UniProt Q86UX6)
T2 construct: purchased DiscoveRx (KINOMEscan, LeadHunter Discovery services)

GRK4 = GRK4 (Homo sapiens, UniProt P32298)
OSR1 = OSR1 (Homo sapiens, UniProt O95747)
ABL1 phosphorylated = ABL1 phosphorylated (Homo sapiens, UniProt P00519)
MET = MET (Homo sapiens, UniProt P08581)
CDKL1 = CDKL1 (Homo sapiens, UniProt Q00532)
TNIK = TNIK (Homo sapiens, UniProt Q9UKE5)
CSK = CSK (Homo sapiens, UniProt P41240)
RIPK5 = RIPK5 (Homo sapiens, UniProt Q6XUX3)
HIPK1 = HIPK1 (Homo sapiens, UniProt Q86Z02)
CLK2 = CLK2 (Homo sapiens, UniProt P49760)
TYRO3 = molecular target: T3, TYRO3 (Homo sapiens, UniProt Q06418)
T3 construct: purchased DiscoveRx (KINOMEscan, LeadHunter Discovery services)

MYLK2 = MYLK2 (Homo sapiens, UniProt Q9H1R3)
NEK6 = NEK6 (Homo sapiens, UniProt Q9HC98)
VRK2 = molecular target: T4, VRK2 (Homo sapiens, UniProt Q86Y07)
T4 construct: purchased DiscoveRx (KINOMEscan, LeadHunter Discovery services)

EPHA2 = EPHA2 (Homo sapiens, UniProt P29317)
[3] = molecular target: RPS6KA4 Kin.Dom.2-C-terminal (Homo sapiens, UniProt O75676)
RPS6KA4 Kin.Dom.2-C-terminal, sequence (O75676 411-674 limits assumed): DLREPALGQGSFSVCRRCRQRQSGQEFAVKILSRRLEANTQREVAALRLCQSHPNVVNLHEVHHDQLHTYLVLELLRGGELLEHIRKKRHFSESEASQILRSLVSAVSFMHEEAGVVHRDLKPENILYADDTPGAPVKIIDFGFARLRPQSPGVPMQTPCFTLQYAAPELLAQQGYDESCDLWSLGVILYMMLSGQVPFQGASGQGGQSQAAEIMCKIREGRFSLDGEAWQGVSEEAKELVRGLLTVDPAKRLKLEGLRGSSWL

EGFR E746-A750del = EGFR E746-A750del (Homo sapiens, UniProt P00533, DEL746-750)
PIM2 = PIM2 (Homo sapiens, UniProt Q9P1W9)
SGK2 = SGK2 (Homo sapiens, UniProt Q9HBY8)
MEK1 = MEK1 (Homo sapiens, UniProt Q02750)
MEK1, sequence (Q02750 whole entry): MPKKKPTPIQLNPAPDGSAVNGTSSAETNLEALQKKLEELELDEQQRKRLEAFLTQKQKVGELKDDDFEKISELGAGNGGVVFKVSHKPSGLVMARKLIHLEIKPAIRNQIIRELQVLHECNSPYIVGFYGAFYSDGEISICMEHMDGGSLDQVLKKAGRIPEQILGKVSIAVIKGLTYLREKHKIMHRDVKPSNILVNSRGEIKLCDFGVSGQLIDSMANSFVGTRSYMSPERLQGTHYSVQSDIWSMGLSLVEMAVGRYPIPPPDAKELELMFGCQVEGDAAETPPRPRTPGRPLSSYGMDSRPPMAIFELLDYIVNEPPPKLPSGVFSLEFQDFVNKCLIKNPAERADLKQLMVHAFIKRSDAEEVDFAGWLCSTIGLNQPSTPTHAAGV

NLK, sequence (Q9UBE8 whole entry): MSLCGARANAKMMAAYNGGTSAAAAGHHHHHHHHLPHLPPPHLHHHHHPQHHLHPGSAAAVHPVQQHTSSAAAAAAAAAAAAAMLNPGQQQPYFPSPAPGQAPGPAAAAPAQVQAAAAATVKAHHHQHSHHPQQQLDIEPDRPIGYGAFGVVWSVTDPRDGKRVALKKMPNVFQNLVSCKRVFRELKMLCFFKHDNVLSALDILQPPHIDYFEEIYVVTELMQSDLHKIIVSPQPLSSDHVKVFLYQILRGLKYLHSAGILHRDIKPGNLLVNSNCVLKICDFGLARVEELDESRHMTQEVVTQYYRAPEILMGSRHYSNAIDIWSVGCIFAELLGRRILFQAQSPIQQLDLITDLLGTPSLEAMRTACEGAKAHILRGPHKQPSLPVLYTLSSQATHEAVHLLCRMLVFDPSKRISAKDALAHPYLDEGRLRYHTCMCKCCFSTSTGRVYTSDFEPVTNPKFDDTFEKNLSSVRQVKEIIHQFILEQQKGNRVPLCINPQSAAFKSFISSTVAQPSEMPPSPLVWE
IRAK1, sequence (P51617 whole entry): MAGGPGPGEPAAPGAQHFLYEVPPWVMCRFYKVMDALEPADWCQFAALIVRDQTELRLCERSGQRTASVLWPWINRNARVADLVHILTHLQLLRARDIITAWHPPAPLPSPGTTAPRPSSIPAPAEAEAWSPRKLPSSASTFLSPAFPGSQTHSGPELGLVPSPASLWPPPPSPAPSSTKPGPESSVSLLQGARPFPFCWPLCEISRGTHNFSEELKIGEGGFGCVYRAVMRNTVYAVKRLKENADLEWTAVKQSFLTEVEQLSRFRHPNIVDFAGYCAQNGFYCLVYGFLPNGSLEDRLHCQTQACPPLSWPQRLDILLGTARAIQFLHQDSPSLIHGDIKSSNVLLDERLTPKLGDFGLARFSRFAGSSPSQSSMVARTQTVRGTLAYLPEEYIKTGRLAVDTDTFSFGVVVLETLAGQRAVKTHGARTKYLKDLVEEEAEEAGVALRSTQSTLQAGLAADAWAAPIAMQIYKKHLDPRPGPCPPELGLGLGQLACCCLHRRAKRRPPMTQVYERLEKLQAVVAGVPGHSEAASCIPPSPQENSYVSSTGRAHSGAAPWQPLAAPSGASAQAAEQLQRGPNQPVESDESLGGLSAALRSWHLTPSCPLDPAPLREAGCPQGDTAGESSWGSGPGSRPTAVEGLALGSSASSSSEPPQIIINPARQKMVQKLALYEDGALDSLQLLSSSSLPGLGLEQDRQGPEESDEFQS

## Nc1ncc(-c2nc3ccccc3o2)c(-c2ccncc2)n1 [Comparative Compound 324, 5-(1,3-benzoxazol-2-yl)-4-(pyridine-4-yl)pyrimidin-2-amine]
CSNK1G2
  remaining binding at 10 µM: 72%
NLK
  remaining binding at 10 µM: 41%
ARK5
  remaining binding at 10 µM: 100%
EPHB6
  remaining binding at 10 µM: 65%
IRAK1
  remaining binding at 10 µM: 87%
[1]
  remaining binding at 10 µM: 96%
TESK1
  remaining binding at 10 µM: 88%
BMX
  remaining binding at 10 µM: 100%
LCK
  remaining binding at 10 µM: 88%
AURKC
  remaining binding at 10 µM: 100%
[2]
  remaining binding at 10 µM: 44%
TRKC
  remaining binding at 10 µM: 81%
ZAK
  remaining binding at 10 µM: 79%
MYLK
  remaining binding at 10 µM: 86%
PRKR
  remaining binding at 10 µM: 96%
AMPK-alpha2
  remaining binding at 10 µM: 100%
WEE1
  remaining binding at 10 µM: 100%
EGFR (G719C)
  remaining binding at 10 µM: 64%
ERK4
  remaining binding at 10 µM: 90%
RIOK1
  remaining binding at 10 µM: 100%
DMPK2
  remaining binding at 10 µM: 82%
ROS1
  remaining binding at 10 µM: 100%
YANK3
  remaining binding at 10 µM: 97%
GRK4
  remaining binding at 10 µM: 100%
OSR1
  remaining binding at 10 µM: 100%
ABL1 phosphorylated
  remaining binding at 10 µM: 98%
MET
  remaining binding at 10 µM: 91%
CDKL1
  remaining binding at 10 µM: 68%
TNIK
  remaining binding at 10 µM: 78%
CSK
  remaining binding at 10 µM: 100%
RIPK5
  remaining binding at 10 µM: 96%
HIPK1
  remaining binding at 10 µM: 64%
CLK2
  remaining binding at 10 µM: 78%
TYRO3
  remaining binding at 10 µM: 99%
MYLK2
  remaining binding at 10 µM: 100%
NEK6
  remaining binding at 10 µM: 91%
VRK2
  remaining binding at 10 µM: 86%
EPHA2
  remaining binding at 10 µM: 98%
[3]
  remaining binding at 10 µM: 100%
EGFR E746-A750del
  remaining binding at 10 µM: 80%
PIM2
  remaining binding at 10 µM: 98%
SGK2
  remaining binding at 10 µM: 100%
MEK1
  remaining binding at 10 µM: 97%

## CNc1c(C(N)=O)c2ccccn2c1C(=O)c1ccc(F)cc1 [Compound A, 2-methyl-amino-3-[(4-fluorophenyl)carbonyl]indolizine-1-carboxamide]
CSNK1G2
  remaining binding at 10 µM: 99%
NLK
  remaining binding at 10 µM: 35%
ARK5
  remaining binding at 10 µM: 85%
EPHB6
  remaining binding at 10 µM: 64%
IRAK1
  remaining binding at 10 µM: 93%
[1]
  remaining binding at 10 µM: 89%
TESK1
  remaining binding at 10 µM: 90%
BMX
  remaining binding at 10 µM: 91%
LCK
  remaining binding at 10 µM: 23%
AURKC
  remaining binding at 10 µM: 100%
[2]
  remaining binding at 10 µM: 23%
TRKC
  remaining binding at 10 µM: 75%
ZAK
  remaining binding at 10 µM: 92%
MYLK
  remaining binding at 10 µM: 71%
PRKR
  remaining binding at 10 µM: 90%
AMPK-alpha2
  remaining binding at 10 µM: 99%
WEE1
  remaining binding at 10 µM: 94%
EGFR (G719C)
  remaining binding at 10 µM: 32%
ERK4
  remaining binding at 10 µM: 78%
RIOK1
  remaining binding at 10 µM: 100%
DMPK2
  remaining binding at 10 µM: 65%
ROS1
  remaining binding at 10 µM: 100%
YANK3
  remaining binding at 10 µM: 100%
GRK4
  remaining binding at 10 µM: 97%
OSR1
  remaining binding at 10 µM: 99%
ABL1 phosphorylated
  remaining binding at 10 µM: 51%
MET
  remaining binding at 10 µM: 100%
CDKL1
  remaining binding at 10 µM: 61%
TNIK
  remaining binding at 10 µM: 53%
CSK
  remaining binding at 10 µM: 91%
RIPK5
  remaining binding at 10 µM: 79%
HIPK1
  remaining binding at 10 µM: 51%
CLK2
  remaining binding at 10 µM: 57%
TYRO3
  remaining binding at 10 µM: 100%
MYLK2
  remaining binding at 10 µM: 100%
NEK6
  remaining binding at 10 µM: 76%
VRK2
  remaining binding at 10 µM: 35%
EPHA2
  remaining binding at 10 µM: 70%
[3]
  remaining binding at 10 µM: 100%
EGFR E746-A750del
  remaining binding at 10 µM: 25%
PIM2
  remaining binding at 10 µM: 65%
SGK2
  remaining binding at 10 µM: 100%
MEK1
  remaining binding at 10 µM: 39%
